Test results published in US9546138B2, “Pyridone derivatives and uses thereof in the treatment of tuberculosis” (priority 2012, dated 2017).

Assays:
[1] = system: Mtb H37Rv resistant mutant 529-10X-108-B6; assay type: cell-based, Mycobacterium tuberculosis
[2] = system: Mtb H37Rv resistant mutant 529-5X-108-S3 (inhA D148G); assay type: cell-based, Mycobacterium tuberculosis
[3] = system: Mtb H37Rv resistant mutant 529-10X-107-B8 (inhA D148E); assay type: cell-based, Mycobacterium tuberculosis
[4] = system: Mtb H37Rv resistant mutant 529-5X-108-S1 (inhA D148G); assay type: cell-based, Mycobacterium tuberculosis
[5] = system: BCG-916-108-25X-B1 (InhA M161I); assay type: cell-based, M bovis BCG
[6] = system: Mtb H37Rv resistant mutant 529-5X-108-B4 (inhA G96V); assay type: cell-based, Mycobacterium tuberculosis
[7] = system: BCG-529-108-10X-2 (InhA M161V); assay type: cell-based, M bovis BCG
[8] = system: Mtb H37Rv resistant mutant 529-5X-108-B2 (inhA S94A); assay type: cell-based, Mycobacterium tuberculosis

**Q.** What does the source list for `CC(C)Cc1cc(O)c(-c2ccccc2)c(=O)[nH]1` [PD12, 4-hydroxy-6-isobutyl-3-phenylpyridin-2(1H)-one]?
**A.** Compound MIC50 [1]: >40 µM; Compound MIC50 [2]: >40 µM; Compound MIC50 [3]: >40 µM; Compound MIC50 [4]: >40 µM; Compound MIC50 [5]: 21.52 µM; Compound MIC50 [6]: >40 µM; Compound MIC50 [7]: 27.88 µM; Compound MIC50 [8]: >40 µM

**Q.** `NNC(=O)c1ccncc1` [Isoniazid, isoniazid, reference compound] was tested. Which “Compound MIC50” value [1] did it give?
**A.** 0.11 µM

**Q.** And the “Compound MIC50” value [2]?
**A.** 0.15 µM

**Q.** And the “Compound MIC50” value [3]?
**A.** 0.31 µM

**Q.** And the “Compound MIC50” value [4]?
**A.** 0.15 µM

**Q.** What about the “Compound MIC50” value [5] of the same molecule?
**A.** 1.48 µM

**Q.** And the “Compound MIC50” value [6]?
**A.** 0.09 µM

**Q.** And the “Compound MIC50” value [7]?
**A.** 1.27 µM

**Q.** And the “Compound MIC50” value [8]?
**A.** 0.86 µM

**Q.** `CC1(C)CCC(Cc2cc(O)c(-c3ccccc3)c(=O)[nH]2)CC1` [PD10, 6-((4,4-dimethylcyclohexyl)methyl)-4-hydroxy-3-phenylpyridin-2(1H)-one] was tested. Which “Compound MIC50” value [1] did it give?
**A.** >5.0 µM

**Q.** And the “Compound MIC50” value [2]?
**A.** 0.38 µM

**Q.** What about the “Compound MIC50” value [3] of the same molecule?
**A.** >5.0 µM

**Q.** And the “Compound MIC50” value [4]?
**A.** 0.29 µM

**Q.** And the “Compound MIC50” value [5]?
**A.** 3.2 µM

**Q.** What about the “Compound MIC50” value [6] of the same molecule?
**A.** >5.0 µM

**Q.** And the “Compound MIC50” value [7]?
**A.** 3.02 µM

**Q.** What about the “Compound MIC50” value [8] of the same molecule?
**A.** 0.78 µM

**Q.** What does the source list for `O=c1[nH]c(CC2CCCCC2)cc(O)c1-c1ccccc1` [PD2, 6-(cyclohexylmethyl)-4-hydroxy-3-phenylpyridin-2(1H)-one]?
**A.** Compound MIC50 [1]: >40 µM; Compound MIC50 [2]: 1.73 µM; Compound MIC50 [3]: >40 µM; Compound MIC50 [4]: 1.46 µM; Compound MIC50 [6]: 14.60 µM; Compound MIC50 [8]: 4.04 µM

**Q.** What does the source list for `CCc1cc(C(N)=S)ccn1` [Ethionamide, reference compound]?
**A.** Compound MIC50 [1]: 1.41 µM; Compound MIC50 [3]: 1.91 µM; Compound MIC50 [4]: 1.53 µM; Compound MIC50 [5]: >60 µM; Compound MIC50 [6]: 1.32 µM; Compound MIC50 [7]: >60 µM; Compound MIC50 [8]: 9.74 µM
